Assay results: paper PMC12527977, “Discovery of a novel tetrapeptide as glucose homeostasis modulator with bifunctionalities of targeting DPP‐IV and microbiota” (iMeta, 2025)
Where two headings read alike, the source gives them in different places. One block for each molecule: values may come before it. Where a SMILES comes first, the peptide text is derived from it. Where no end group is shown, it is not given here.

Legend:
[1] = target: T1, DPP-IV (Homo sapiens, UniProt P27487); test: DPP-IV inhibitory activity of peptides (DPP-IV-Glo Protease Assay Kit); format: biochemical; design: purchased QiZheng Biotech (Shanghai, China) IBDPP0901; details: for DPP-IV inhibitory activity: DPP-IV-Glo Protease Assay Kit, control = 0, in % (unit assumed)
Target sequence in this assay (P27487 whole entry): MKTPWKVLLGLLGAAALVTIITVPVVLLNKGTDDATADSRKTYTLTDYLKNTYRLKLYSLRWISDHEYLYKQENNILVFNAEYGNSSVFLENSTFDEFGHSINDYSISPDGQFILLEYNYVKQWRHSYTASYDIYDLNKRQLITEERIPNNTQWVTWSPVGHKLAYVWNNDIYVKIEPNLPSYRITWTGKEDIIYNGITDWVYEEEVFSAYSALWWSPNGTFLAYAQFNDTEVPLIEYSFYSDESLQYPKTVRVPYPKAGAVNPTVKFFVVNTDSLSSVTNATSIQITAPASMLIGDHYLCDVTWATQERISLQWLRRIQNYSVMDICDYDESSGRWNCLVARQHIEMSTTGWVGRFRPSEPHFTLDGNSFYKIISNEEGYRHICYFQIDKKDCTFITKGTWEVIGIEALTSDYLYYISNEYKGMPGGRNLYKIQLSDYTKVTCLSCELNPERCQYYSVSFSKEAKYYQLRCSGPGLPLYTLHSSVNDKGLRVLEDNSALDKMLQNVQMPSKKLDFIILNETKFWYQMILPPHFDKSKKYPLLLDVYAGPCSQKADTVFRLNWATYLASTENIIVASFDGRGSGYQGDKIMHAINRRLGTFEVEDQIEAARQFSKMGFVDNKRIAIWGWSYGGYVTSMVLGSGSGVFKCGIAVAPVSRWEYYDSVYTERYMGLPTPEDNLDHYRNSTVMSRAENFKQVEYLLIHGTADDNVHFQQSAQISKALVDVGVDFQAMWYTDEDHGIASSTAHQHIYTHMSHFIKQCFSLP

[2] = Simulated digestive stability of peptides (pepsase then trypsase); format: in vitro ADME, porcine; details: pig, relative to basal 100, sheet S2H; for remaining at 4 h, 5 mg/mL: pH 7, simulated digestion, after pepsase then trypsase, read-out: Peptide remaining, Trypsase; for remaining at 2 h, 5 mg/mL: porcine pepsase (simulated gastric digestion), pH 3, simulated digestion, after porcine pepsase, read-out: Peptide remaining, Pepsase
Procedure: The in vitro digestibility of the peptides was determined according to the method described by Ohanenye et al. with some modifications. Briefly, 5.0 mg/mL peptides were mixed with 5000 U/mL porcine pepsase (pH 3.0). The mixture was incubated with continuous shaking in a water bath at 37 ℃ for 2 h. Then, the mixture was adjusted to pH 7.0, and a final concentration of 100 U/mL trypsase was added, followed by continuous shaking at 37 ℃ for another 2 h. After digestion, the enzyme was inactivated, and the mixture was incubated in a water bath (100 ℃) for 20 min. Subsequently, the mixture was centrifuged at 6000 rpm for 20 min, after which the supernatants were collected for further analysis. The concentrations of peptides in the digestions and TPH were determined via AB SCIEX QTrap 6600+ (AB Sciex, Framingham, Massachusetts).

[3] = target: T1, DPP-IV; test: Surface plasmon resonance (Biacore 8K, CM5 chip, 25 °C); format: binding; design: purchased QiZheng Biotech (Shanghai, China) IBDPP0901
[4] = target: dipeptidyl peptidase IV (UniProt P27487)
[5] = SPR, Table S3, read-out: KD values

dipeptidyl peptidase IV, sequence (P27487 41-765): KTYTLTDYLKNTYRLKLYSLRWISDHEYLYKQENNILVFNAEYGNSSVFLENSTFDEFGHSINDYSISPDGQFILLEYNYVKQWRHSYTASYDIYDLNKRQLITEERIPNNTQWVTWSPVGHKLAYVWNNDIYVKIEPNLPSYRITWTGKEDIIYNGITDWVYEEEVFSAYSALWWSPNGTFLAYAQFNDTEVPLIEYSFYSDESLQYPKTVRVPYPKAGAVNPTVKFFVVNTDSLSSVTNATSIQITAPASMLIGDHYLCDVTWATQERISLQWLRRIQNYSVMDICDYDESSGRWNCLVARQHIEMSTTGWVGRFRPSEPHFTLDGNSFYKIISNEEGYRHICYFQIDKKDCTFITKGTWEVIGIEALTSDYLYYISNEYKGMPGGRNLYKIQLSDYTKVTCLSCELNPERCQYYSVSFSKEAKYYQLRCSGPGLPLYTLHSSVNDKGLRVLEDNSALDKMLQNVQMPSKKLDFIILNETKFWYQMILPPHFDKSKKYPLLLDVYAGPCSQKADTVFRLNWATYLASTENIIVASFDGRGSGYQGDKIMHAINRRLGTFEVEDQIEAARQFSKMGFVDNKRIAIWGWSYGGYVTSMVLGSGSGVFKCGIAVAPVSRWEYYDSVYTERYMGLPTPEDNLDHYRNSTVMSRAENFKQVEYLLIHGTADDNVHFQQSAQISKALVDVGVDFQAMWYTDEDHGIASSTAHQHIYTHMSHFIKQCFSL

- DPP-IV inhibitory activity ([1]; replicate 1, sheet S2F): 13.9411
- DPP-IV inhibitory activity ([1]; replicate 2, sheet S2F): 16.0533
- DPP-IV inhibitory activity ([1]; replicate 3, sheet S2F): 12.0865
- IC50 ([1]; Table S3, read-out: IC50): 590 µM
Molecule: CC(C)C[C@H](N)C(=O)N[C@@H](CC(N)=O)C(=O)N[C@@H](C)C(=O)N1CCC[C@H]1C(=O)O [LNAP] (H-LNAP-OH)

- remaining at 4 h, 5 mg/mL ([2]; replicate 1): 9.2%
- remaining at 4 h, 5 mg/mL ([2]; replicate 2): 9.52%
- remaining at 4 h, 5 mg/mL ([2]; replicate 3): 7.78%
- remaining at 2 h, 5 mg/mL ([2]; replicate 1): 12.2%
- remaining at 2 h, 5 mg/mL ([2]; replicate 2): 14.3%
- remaining at 2 h, 5 mg/mL ([2]; replicate 3): 10.4%
- DPP-IV inhibitory activity ([1]; replicate 1, sheet S2F): 63.2506
- DPP-IV inhibitory activity ([1]; replicate 2, sheet S2F): 57.5085
- DPP-IV inhibitory activity ([1]; replicate 3, sheet S2F): 57.0946
- IC50 ([1]; Table S3, read-out: IC50): 350 µM
- Kd [3, 5]: 14 µM
Molecule: CC(C)[C@H](N)C(=O)N[C@@H](C)C(=O)N[C@@H](CC(=O)O)C(=O)N[C@@H](Cc1c[nH]c2ccccc12)C(=O)O [VADW] (H-VADW-OH)

- DPP-IV inhibitory activity ([1]; replicate 1, sheet S2F): 82.2499
- DPP-IV inhibitory activity ([1]; replicate 2, sheet S2F): 85.4257
- DPP-IV inhibitory activity ([1]; replicate 3, sheet S2F): 81.38
- IC50 ([1]; Table S3, read-out: IC50): 630 µM
Molecule: N[C@@H](Cc1c[nH]c2ccccc12)C(=O)N[C@@H](CC(=O)O)C(=O)N[C@@H](CO)C(=O)N[C@@H](Cc1ccc(O)cc1)C(=O)O [WDSY] (H-WDSY-OH)

- DPP-IV inhibitory activity ([1]; replicate 1, sheet S2F): 21.3239
- DPP-IV inhibitory activity ([1]; replicate 2, sheet S2F): 16.4075
- DPP-IV inhibitory activity ([1]; replicate 3, sheet S2F): 17.3019
- IC50 ([1]; Table S3, read-out: IC50): 2400 µM
Molecule: CC(C)C[C@H](NC(=O)[C@@H](N)Cc1c[nH]c2ccccc12)C(=O)N[C@@H](CCC(=O)O)C(=O)O [WLE] (H-Trp-Leu-Glu-OH)

- IC50 of inhibition of DPP-IV activity in vitro [4]: 730 µM
Molecule: PSSQQ (peptide)

- IC50 of inhibition of DPP-IV activity in vitro [4]: 2400 µM
Molecule: WLE (peptide)

- IC50 of inhibition of DPP-IV activity in vitro [4]: 140 µM
Molecule: YNL (peptide)

- IC50 of inhibition of DPP-IV activity in vitro [4]: 280 µM
Molecule: YQL (peptide)

- IC50 of inhibition of DPP-IV activity in vitro [4]: 410 µM
Molecule: YSYA

- IC50 of inhibition of DPP-IV activity in vitro [4]: 600 µM
Molecule: WIAVK

- IC50 of inhibition of DPP-IV activity in vitro [4]: 320 µM
Molecule: YTGD

- IC50 of inhibition of DPP-IV activity in vitro [4]: 7110 µM
Molecule: YTPHW

- IC50 of inhibition of DPP-IV activity in vitro [4]: 350 µM
Molecule: VADW

- IC50 of inhibition of DPP-IV activity in vitro [4]: 150 µM
Molecule: WNVN

- IC50 of inhibition of DPP-IV activity in vitro [4]: 590 µM
Molecule: LNAP

- IC50 of inhibition of DPP-IV activity in vitro [4]: 510 µM
Molecule: YNLP

- IC50 of inhibition of DPP-IV activity in vitro [4]: 1 µM
Molecule: VAMP

- IC50 of inhibition of DPP-IV activity in vitro [4]: 630 µM
Molecule: WDSY

- IC50 of inhibition of DPP-IV activity in vitro [4]: 24600 µM
Molecule: PQNHA

- IC50 of inhibition of DPP-IV activity in vitro [4]: 650 µM
Molecule: YQLM

- IC50 of inhibition of DPP-IV activity in vitro [4]: 18500 µM
Molecule: VFTPQ

The remaining lines, values behind:

Molecule: CC(C)C[C@H](NC(=O)[C@@H](N)Cc1ccccc1)C(=O)N[C@@H](CCC(N)=O)C(=O)O [FLQ] (H-Phe-Leu-Gln-OH)
- DPP-IV inhibitory activity ([1]; replicate 1, sheet S2F): 25.2277
- DPP-IV inhibitory activity ([1]; replicate 2, sheet S2F): 32.7776
- DPP-IV inhibitory activity ([1]; replicate 3, sheet S2F): 32.9911
- IC50 ([1]; Table S3, read-out: IC50): 4130 µM

Molecule: CC(C)C[C@H](NC(=O)[C@H](CCC(N)=O)NC(=O)[C@@H](N)Cc1ccccc1)C(=O)O [FQL] (H-Phe-Gln-Leu-OH)
- DPP-IV inhibitory activity ([1]; replicate 1, sheet S2F): 25.4694
- DPP-IV inhibitory activity ([1]; replicate 2, sheet S2F): 22.9016
- DPP-IV inhibitory activity ([1]; replicate 3, sheet S2F): 15.9024
- IC50 ([1]; Table S3, read-out: IC50): 970 µM

Molecule: CC(C)C[C@H](NC(=O)[C@@H](N)CC(C)C)C(=O)N[C@@H](Cc1ccc(O)cc1)C(=O)O [LLY] (H-Leu-Leu-Tyr-OH)
- remaining at 4 h, 5 mg/mL ([2]; replicate 1): 0.95%
- remaining at 4 h, 5 mg/mL ([2]; replicate 2): 0.78%
- remaining at 4 h, 5 mg/mL ([2]; replicate 3): 0.81%
- remaining at 2 h, 5 mg/mL ([2]; replicate 1): 1.24%
- remaining at 2 h, 5 mg/mL ([2]; replicate 2): 0.79%
- remaining at 2 h, 5 mg/mL ([2]; replicate 3): 0.98%
- DPP-IV inhibitory activity ([1]; replicate 1, sheet S2F): 32.8224
- DPP-IV inhibitory activity ([1]; replicate 2, sheet S2F): 33.3933
- DPP-IV inhibitory activity ([1]; replicate 3, sheet S2F): 36.9146
- IC50 ([1]; Table S3, read-out: IC50): 830 µM
- Kd [3, 5]: 5.23 µM

Molecule: CC(C)C[C@H](NC(=O)[C@H](CC(N)=O)NC(=O)[C@@H](N)Cc1ccc(O)cc1)C(=O)O [YNL] (H-Tyr-Asn-Leu-OH)
- DPP-IV inhibitory activity ([1]; replicate 1, […]): 24.2295
- DPP-IV inhibitory activity ([1]; replicate 2, […]): 23.675
- DPP-IV inhibitory activity ([1]; replicate 3, […]): 21.7871
- IC50 ([1]; Table S3, read-out: IC50): 140 µM

Molecule: CSCC[C@H](NC(=O)[C@H](CC(C)C)NC(=O)[C@H](CCC(N)=O)NC(=O)[C@@H](N)Cc1ccc(O)cc1)C(=O)O [YQLM] (H-YQLM-OH)
- remaining at 4 h, 5 mg/mL ([2]; replicate 1): 14.3%
- remaining at 4 h, 5 mg/mL ([2]; replicate 2): 12.7%
- remaining at 4 h, 5 mg/mL ([2]; replicate 3): 9.83%
- remaining at 2 h, 5 mg/mL ([2]; replicate 2): 14.7%
- remaining at 2 h, 5 mg/mL ([2]; replicate 3): 15%
- DPP-IV inhibitory activity ([1]; replicate 1, sheet S2F): 41.3327
- DPP-IV inhibitory activity ([1]; replicate 2, sheet S2F): 38.0136
- DPP-IV inhibitory activity ([1]; replicate 3, sheet S2F): 34.538
- IC50 ([1]; Table S3, read-out: IC50): 650 µM
- Kd [3, 5]: 25.4 µM

Molecule: CC(C)C[C@H](NC(=O)[C@H](CCC(N)=O)NC(=O)[C@@H](N)Cc1ccc(O)cc1)C(=O)O [YQL] (H-Tyr-Gln-Leu-OH)
- DPP-IV inhibitory activity ([1]; replicate 1, […]): 20.7988
- DPP-IV inhibitory activity ([1]; replicate 2, […]): 21.5571
- DPP-IV inhibitory activity ([1]; replicate 3, […]): 29.5286
- IC50 ([1]; Table S3, read-out: IC50): 280 µM

Molecule: C[C@@H](O)[C@H](NC(=O)[C@@H](N)Cc1ccc(O)cc1)C(=O)NCC(=O)N[C@@H](CC(=O)O)C(=O)O [YTGD] (H-YTGD-OH)
- DPP-IV inhibitory activity ([1]; replicate 1, sheet S2F): 20.1405
- DPP-IV inhibitory activity ([1]; replicate 2, sheet S2F): 15.5931
- DPP-IV inhibitory activity ([1]; replicate 3, sheet S2F): 21.6532
- IC50 ([1]; Table S3, read-out: IC50): 320 µM
- Kd [3, 5]: 100 µM

Molecule: FDGEL [FDGEL]
- IC50 [1]: 45100 µM
- DPP-IV inhibitory activity ([1]; replicate 1, […]): 28.637
- DPP-IV inhibitory activity ([1]; replicate 2, […]): 26.7775
- DPP-IV inhibitory activity ([1]; replicate 3, […]): 19.1292

Molecule: FLQ (peptide)
- IC50 of inhibition of DPP-IV activity in vitro [4]: 4130 µM

Molecule: FNPRG [FNPRG]
- IC50 [1]: 40500 µM
- DPP-IV inhibitory activity ([1]; replicate 1, […]): 47.4625
- DPP-IV inhibitory activity ([1]; replicate 2, […]): 43.5702
- DPP-IV inhibitory activity ([1]; replicate 3, […]): 43.4293

Molecule: FNVDSE [FNVDSE]
- IC50 [1]: 84000 µM
- DPP-IV inhibitory activity ([1]; replicate 1, […]): 14.7737
- DPP-IV inhibitory activity ([1]; replicate 2, […]): 13.6123
- DPP-IV inhibitory activity ([1]; replicate 3, […]): 13.4568

Molecule: FQL (peptide)
- IC50 of inhibition of DPP-IV activity in vitro [4]: 970 µM

Molecule: LLY (peptide)
- IC50 of inhibition of DPP-IV activity in vitro [4]: 830 µM

Molecule: PQNHA [PQNHA]
- IC50 [1]: 24600 µM
- DPP-IV inhibitory activity ([1]; replicate 1, […]): 27.665
- DPP-IV inhibitory activity ([1]; replicate 2, […]): 17.6559
- DPP-IV inhibitory activity ([1]; replicate 3, […]): 16.9893

Molecule: PSSQQ [PSSQQ]
- IC50 [1]: 730 µM
- DPP-IV inhibitory activity ([1]; replicate 1, […]): 8.036
- DPP-IV inhibitory activity ([1]; replicate 2, […]): 8.558
- DPP-IV inhibitory activity ([1]; replicate 3, […]): 22.2643
- Kd [3]: 37000 µM

Molecule: VFTPQ [VFTPQ]
- IC50 [1]: 18500 µM
- DPP-IV inhibitory activity ([1]; replicate 1, […]): 17.5527
- DPP-IV inhibitory activity ([1]; replicate 2, […]): 15.1374
- DPP-IV inhibitory activity ([1]; replicate 3, […]): 15.1911

Molecule: WIAVK [WIAVK]
- IC50 [1]: 600 µM
- DPP-IV inhibitory activity ([1]; replicate 1, […]): 55.8181
- DPP-IV inhibitory activity ([1]; replicate 2, […]): 53.6066
- DPP-IV inhibitory activity ([1]; replicate 3, […]): 51.0205

Molecule: YTPHW [YTPHW]
- DPP-IV inhibitory activity ([1]; replicate 1, […]): 18.6094
- DPP-IV inhibitory activity ([1]; replicate 2, […]): 9.79
- DPP-IV inhibitory activity ([1]; replicate 3, […]): 21.0526
- IC50 ([1]; Table S3, read-out: IC50): 7110 µM

Molecule: FPQS
- IC50 of inhibition of DPP-IV activity in vitro [4]: 350 µM

Molecule: FNVDSE
- IC50 of inhibition of DPP-IV activity in vitro [4]: 84000 µM

Molecule: FNPRG
- IC50 of inhibition of DPP-IV activity in vitro [4]: 40500 µM

Molecule: FDGEL
- IC50 of inhibition of DPP-IV activity in vitro [4]: 45100 µM
